The values below are quoted from earlier work in patent US11013731B2, “Intratumoral administration of sirolimus for treatment of prostate cancer” (SANTEN PHARMACEUTICAL CO., LTD., priority 2017, dated 2021).

The conditions of this data set: according to Medscape.

As to `CO[C@H]1C[C@@H]2CC[C@@H](C)[C@@](O)(O2)C(=O)C(=O)N2CCCC[C@H]2C(=O)O[C@H]([C@H](C)C[C@@H]2CC[C@@H](O)[C@H](OC)C2)CC(=O)[C@H](C)/C=C(\C)[C@@H](O)[C@@H](OC)C(=O)[C@H](C)C[C@H](C)/C=C/C=C/C=C/1C` [sirolimus], the oral bioavailability is reported as 14%.
